Laboratory results as given in patent US8278083B2 (priority 2004, dated 2012).
Where two headings read alike, the source gives them in different places.

Key:
[1] = test system: SIV Mne; assay type: cell-based
[2] = test system: HIV-1(MN); assay type: cell-based; details: INA-treated HIV-1(MN); for Avg. Capsid Protein conc. Day 7 / Avg. Capsid Protein conc. Day 14 / Avg. Capsid Protein conc. Day 21: AA2 clone 1 cells; for Culture Result Neg / Culture Result Pos: of quadruplicate cultures
[3] = test system: SIV; assay type: cell-based; details: INA-treated SIV; FIG. 5
[4] = test system: HIV; assay type: cell-based; details: cells exposed to INA-treated HIV; FIG. 6
[5] = test system: HIV; assay type: binding; details: compared with non-treated virus; p24 ELISA; FIG. 7
[6] = test system: tumor cells; assay type: cell-based
[7] = test system: EBOV-GFP; assay type: cell-based, Zaire Ebola virus
[8] = test system: Zaire EBOV; assay type: cell-based, Zaire Ebola virus
[9] = test system: influenza virus strain H3N2 (X-31); assay type: cell-based
[10] = test system: neuraminidase; assay type: biochemical, influenza virus H3N2
[11] = test system: influenza virus; assay type: cell-based
[12] = test system: influenza HA; assay type: cell-based, influenza virus; details: pH 5.0
[13] = test system: HeLa cell membrane; assay type: cell-based; details: HeLa cells, INA 20 or 100 μM + UV; FIG. 17

## [N-]=[N+]=Nc1cccc2c(I)cccc12 [INA, 1,5-iodonaphthyl azide]
[1]; 200 μM INA, SIV (P-28) and HIV (P-24) expression
  infectivity blocked: 100%
[1]; 200 μM INA, up to 11 days after INA treatment, FIG. 4
  production of the viral protein p28: no detectable production
[1]; INA-treated SIV Mne, Reed and Muench, day 21
  1/TCID50/ml: 0
[1]; INA-treated SIV, 1/dil 10^1, number of cultures productively infected, day 21
  Culture Result Pos: 0
[1]; INA-treated SIV, 1/dil 10^1, number of cultures uninfected, day 21
  Culture Result Neg: 0
[1]; as little as 50 μM INA, FIG. 4
  viral infectivity of SIV: reduced to essentially zero
[2]; 1/dil 10^1
  Avg. Capsid Protein conc. Day 7: 9,201 pg/ml
  Avg. Capsid Protein conc. Day 14: 0 pg/mL
  Avg. Capsid Protein conc. Day 21: 0 pg/mL
[2]; 1/dil 10^1, day 21
  Culture Result Neg: 4
  Culture Result Pos: 0
[2]; 1/dil 10^2
  Avg. Capsid Protein conc. Day 7: 0 pg/mL
  Avg. Capsid Protein conc. Day 14: 0 pg/mL
  Avg. Capsid Protein conc. Day 21: 0 pg/mL
[2]; 1/dil 10^2, day 21
  Culture Result Neg: 4
  Culture Result Pos: 0
[2]; 1/dil 10^3
  Avg. Capsid Protein conc. Day 7: 0 pg/mL
  Avg. Capsid Protein conc. Day 14: 0 pg/mL
  Avg. Capsid Protein conc. Day 21: 0 pg/mL
[2]; 1/dil 10^3, day 21
  Culture Result Neg: 4
  Culture Result Pos: 0
[2]; 1/dil 10^4
  Avg. Capsid Protein conc. Day 7: 0 pg/mL
  Avg. Capsid Protein conc. Day 14: 0 pg/mL
  Avg. Capsid Protein conc. Day 21: 0 pg/mL
[2]; 1/dil 10^4, day 21
  Culture Result Neg: 4
  Culture Result Pos: 0
[2]; 1/dil 10^5
  Avg. Capsid Protein conc. Day 7: 0 pg/mL
  Avg. Capsid Protein conc. Day 14: 0 pg/mL
  Avg. Capsid Protein conc. Day 21: 0 pg/mL
[2]; 1/dil 10^5, day 21
  Culture Result Neg: 4
  Culture Result Pos: 0
[2]; 1/dil 10^6
  Avg. Capsid Protein conc. Day 7: 0 pg/mL
  Avg. Capsid Protein conc. Day 14: 0 pg/mL
  Avg. Capsid Protein conc. Day 21: 0 pg/mL
[2]; 1/dil 10^6, day 21
  Culture Result Neg: 4
  Culture Result Pos: 0
[2]; Reed and Muench, day 21
  1/TCID50/ml: 0
[3]
  fusion of SIV with the target cell at the plasma membrane level: blocked fusion of SIV with the target cell
[4]
  luciferase expression in JC53BL cells: substantially no luciferase expression is detected
[5]
  binding of INA-treated HIV to neutralizing antibodies 2G12, B12 and 4E10: interacts substantially the same as the non-treated virus
[6]
  ability of tumor cells to divide and form colonies: blocked their ability to divide and form colonies
[7]
  concentration sufficient to inactivate EBOV completely: 100 to 200 µM
[7]; 24-96 h
  infectivity of EBOV-GFP: complete loss of infectivity
[8]
  virus growth (genome copies in culture supernatant): did not show any growth
[9]
  infectivity of the influenza virus: reduced the infectivity of the influenza virus to zero
[10]
  catalytic activity of the viral envelope enzyme neuraminidase: not affected
[11]
  pH dependent mixing of lipids from the viral envelope with lipids of the target cell (R-18 dequenching): not affected
[12]
  redistribution of viral envelope proteins into the cell membrane (125INA incorporation into HA): almost no detectable signal
[13]
  mobile fraction of the lipid (DiO): not affected
  protein mobile fraction (CD4-GFP): reduced to background level
